Values of other authors in patent US20070059371A1, “Nanoparticulate ebastine formulations” (Elan Pharma International, Limited, priority 2005, published 2007).

Assays:
[1] = mainly as conjugated metabolites

Compound: CC(C)(C)c1ccc(C(=O)CCCN2CCC(OC(c3ccccc3)c3ccccc3)CC2)cc1 [Ebastine, 4′-tert-butyl-4-[4-(diphenylmethoxy)piperidino]butyrophenone]
- excreted in the urine [1]: 66%
- solubility in water: not very soluble in water
